31 molecules from ChEMBL document CHEMBL1121401, “Potential antitumor agents. 33. Quantitative structure--activity relationships for mutagenic activity and antitumor activity of substituted 4'-(9-acridinylamino)methanesulfonanilide derivatives” (J Med Chem, 1980) can be followed below.

Calls of active or inactive are those of the source. No cut-off for these calls is given here.

Series [1] is filed under the species Mus musculus.
Description: Drug dose in (mg/kg)/day to provide an increase in life span of 40% was determined; nr refers to Particular level of biological response required not reached before drug toxicity supervened
The nature of series [2]: physchem.
Description: Ionization constant (pKa)
For series [3], the system named is Salmonella typhimurium. As to conditions: Salmonella enterica subsp. enterica serovar Typhimurium.
The species entered for series [4] is Mus musculus. The source holds these as a separate data set.
Description: Drug dose in (mg/kg)/day to provide an increase in life span of 40% was determined;nr refers to Particular level of biological response required not reached before drug toxicity supervened

As to `CS(=O)(=O)Nc1ccc(Nc2c3ccccc3nc3ccccc23)cc1[N+](=O)[O-]`, the “Log 1/D40” value in series [1] is on record as “Not reached”.

With `CS(=O)(=O)Nc1ccc(Nc2c3ccccc3nc3ccccc23)c(N)c1`, the pKa (as a rule, the negative logarithm of the acid dissociation constant) in series [2] was found to be 7.65. Consider `CS(=O)(=O)Nc1ccc(Nc2c3ccccc3nc3ccc(C(N)=O)cc23)cc1`, for which the “Log 1/D40” value in series [1] was “Not reached”. In series [2], the pKa came to 6.34. Turning to `CS(=O)(=O)Nc1ccc(Nc2c3ccccc3nc3ccccc23)c([N+](=O)[O-])c1`, the “Log 1/D40” value in series [1] is on record as “Not reached”. Besides, in series [3], the “Log M50” value was “inactive”. In series [2], this molecule showed a pKa of 4.86. As to `COc1cc(Nc2c3ccccc3nc3ccccc23)ccc1NS(C)(=O)=O` [o-Amsacrine], the “Log 1/D40” value in series [1] is recorded as “Not reached”. The same molecule came in with a pKa in series [2] of 7.03.

In the case of `CS(=O)(=O)Nc1ccc(Nc2c3ccccc3nc3cc(NS(C)(=O)=O)ccc23)cc1`, in series [3], the “Log M50” value was “inactive”. In the case of `Cc1cc(Nc2c3ccccc3nc3ccccc23)ccc1NS(C)(=O)=O`, the “Log 1/D40” value in series [1] is listed as “Not reached”. The pKa in series [2] was 7.08.

For `CNc1ccc2c(Nc3ccc(NS(C)(=O)=O)cc3)c3ccccc3nc2c1`, the pKa in series [2] turned out to be 9.3.

Turning to `COc1cccc2nc3ccccc3c(Nc3ccc(NS(C)(=O)=O)cc3)c12`, the “Log 1/D40” value in series [1] is on record as “Not reached”. `COc1ccc2c(Nc3ccc(NS(C)(=O)=O)cc3)c3ccccc3nc2c1` registered a pKa in series [2] of 7.57. `CS(=O)(=O)Nc1ccc(Nc2c3ccccc3nc3ccccc23)c(Cl)c1`: in series [1], the “Log 1/D40” value is “Not reached”. The molecule also gave a pKa in series [2] of 6.34. Turning to `CS(=O)(=O)Nc1ccc(Nc2c3ccccc3nc3cnccc23)cc1`, the “Log 1/D40” value in series [1] was “Not reached”.

In the case of `CS(=O)(=O)Nc1ccc(Nc2c3ccccc3nc3cccc(Cl)c23)cc1`, the pKa in series [2] is 5.86. `CS(=O)(=O)Nc1ccc(Nc2c3ccccc3nc3ccccc23)cc1Cl`: in series [1], the “Log 1/D40” value is on record as “Not reached”. Moreover, in series [2], the pKa came out at 6.44. In the same order, the values of `CS(=O)(=O)Nc1ccc(Nc2c3ccccc3nc3cc(S(C)(=O)=O)ccc23)cc1` are “Not reached” and 5.65. Regarding `CS(=O)(=O)Nc1ccc(Nc2c3ccccc3nc3cc(C#N)ccc23)cc1`, the “Log 1/D40” value in series [1] is listed as “Not reached”. For the same molecule, the “Log M50” value in series [3] is “inactive”. In series [2], this molecule returned a pKa of 5.75. Turning to `CS(=O)(=O)Nc1ccc(Nc2c3ccccc3nc3ccc(Cl)cc23)cc1`, the “Log 1/D40” value in series [1] is “Not reached”. Besides, in series [2], the pKa is 6.42. In turn, `COC(=O)Nc1ccc2c(Nc3ccc(NS(C)(=O)=O)cc3)c3ccccc3nc2c1` displayed a pKa in series [2] of 7.48.

`CS(=O)(=O)Nc1ccc(Nc2c3ccccc3nc3cc(Cl)ccc23)cc1` yielded a pKa in series [2] of 6.57.

With `CS(=O)(=O)Nc1ccc(Nc2c3ccccc3nc3cc(N=[N+]=[N-])ccc23)cc1`, in series [2], the pKa is 7. `CS(=O)(=O)Nc1ccc(Nc2c3ccccc3nc3ccc([N+](=O)[O-])cc23)cc1`: in series [1], the “Log 1/D40” value is “Not reached”. On the same count and under the same terms, to `CCCCCCS(=O)(=O)Nc1ccc(Nc2c3ccccc3nc3ccccc23)cc1` belongs “Not reached”. Turning to `C[N+](C)=[N+]=Nc1ccc2c(Nc3ccc(NS(C)(=O)=O)cc3)c3ccccc3nc2c1`, the pKa in series [2] worked out at 7.13. As to `Cc1ccc2nc3ccccc3c(Nc3ccc(NS(C)(=O)=O)cc3)c2c1`, in series [1], the “Log 1/D40” value is reported as “Not reached”. For the same molecule, in series [2], the pKa was 7.23. For `CS(=O)(=O)Nc1ccc(Nc2c3ccccc3nc3c(Cl)cccc23)cc1`, in series [4], the “Log 1/D40” value was “Not reached”. The molecule further registered a pKa in series [2] of 5.92. `Cc1cc(NS(C)(=O)=O)ccc1Nc1c2ccccc2nc2ccccc12`: the pKa in series [2] amounted to 7.38. Turning to `COc1cccc2c(Nc3ccc(NS(C)(=O)=O)cc3)c3ccccc3nc12`, the pKa in series [2] worked out at 7.15. Same read-out and setting: to `Cc1cccc2nc3ccccc3c(Nc3ccc(NS(C)(=O)=O)cc3)c12` belongs 6.43. Same read-out and setting: to `Cc1ccc2c(Nc3ccc(NS(C)(=O)=O)cc3)c3ccccc3nc2c1` belongs 7.49; to `CS(=O)(=O)Nc1ccc(Nc2c3ccccc3nc3cc(Br)ccc23)cc1`, 6.56. For the molecule `COc1ccc2nc3ccccc3c(Nc3ccc(NS(C)(=O)=O)cc3)c2c1`, the “Log 1/D40” value in series [1] is on record as “Not reached”. In series [2], this molecule gave a pKa of 6.87.
